One data set concerns Adult S. mansoni. Description: In vitro adult S. mansoni worm assay. The data set is classed as cell-based. The settings on record: Schistosoma mansoni, 120 h incubation. The text has this:
(§1) The Puerto Rican strain of S. mansoni was maintained in Biomphalaria glabrata and CD1 mice. Oncomelania hupensis (hupensis) infected with S. japonicum (Chinese strain) and Bulinus truncatus (truncatus) infected with Egyptian strain S. haematobium were obtained from BEI Resources, NIAID, NIH. Infection of mice for worm recovery was as previously described except that, whereas cercariae of S. mansoni and S. haematobium were obtained by shedding from infected snails under lights, cercariae of S. japonicum were obtained by gently crushing the snails. Furthermore, adult S. haematobium were recovered after 12 weeks following mouse infection.
(§2) In vitro efficacy was carried out as previously described. In brief, worms were recovered from infected mice by portal perfusion 3 weeks (for juveniles) or 6 weeks (for adults) post-infection using warm perfusion medium (Dulbecco’s Modified Eagle’s Medium [DMEM], 2mM L-glutamine, 100 Units/ml penicillin, 100μg/ml streptomycin, 20mM Hepes, 10 Units/ml heparin [Sigma, UK]). Worms were washed free of red blood cells using the perfusion medium, and finally suspended in complete medium (cDMEM: DMEM, 2mM L-glutamine, 100 Units/ml penicillin, 100μg/ml streptomycin, 10% FCS). The juvenile assays were carried out in 96-well plates, each well containing 6–8 worms in 200 μL cDMEM. The adult worm assay was in 24-well plates, each well containing 3 worm pairs in 1mL cDMEM. Both the juvenile and adult worm cultures were kept at 37° C, in an atmosphere of 5% CO2. Drug effects were determined on day 5 following drug treatment by assessing the viability of individual worms as described in [14].

A further data set relates to Juvenile S. mansoni. Description: In vitro juvenile (3 week old) S. mansoni worm assay. The data set is classed as cell-based. Conditions: Schistosoma mansoni; Table 2; in vitro, 120 h incubation.
Text: as §1, §2

A further data set in a line: Mouse pharmacokinetics.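 For all read-outs here: three mice per experiment, dosed in 10% DMSO with 50 mM Na2HPO4 buffer plus Tween-80, plasma levels quantified by LC-MS against a calibration line prepared in blank matrix.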 Type of data set: in vivo. Conditions: for Clobs / AUC(0-inf) / Vd / half-life: 0.5 mg/kg iv, in a mixture of 5 compounds; for AUC(0-inf) / Vd / bioavailability / half-life: male, Swiss albino, plasma; for Vd: read-out: Vss; for bioavailability: 2.5 mg/kg oral, mixture of 5 compounds, calculated values > 100% shown as 100; for half-life: iv, 0.5 mg/kg, sampled over 24 h.

The subject of the next data set is HepG2 cells. Description: Cytotoxicity, HepG2 cells with MTT. The settings on record: Table 2; hepG2 cell line, 72 h incubation. The data set is classed as cell-based, human. As to the method: Activity against mammalian cells was determined using either of two standard assays. The first of these used MRC-5 cells with Alamar blue staining as previously described. The second used HepG2 cells monitored using 3-(4,5-dimethylthiazol-2-yl)-2,5-diphenyltetrazolium bromide (MTT) as previously described.

The nature of data set [1]: Metabolic stability in mouse hepatocytes. Conditions: hepatocytes (suspension), pH 7.4, 90 min incubation, read-out: Mouse hepatocyte % remaining at 90 min. The data set is classed as in vitro ADME. As to the method:
(§3) 100 μM compound stock solution was prepared from 5 μL of 4 mM stock in DMSO + 195 μL MeCN. Working solution (2 μM compound) was prepared using 10 μL of 100 μM stock + 490 μL buffer pH 7.4 (KHB supplemented with CaCl2, NaHCO3, HEPES, fructose, glycine; pH 7.4).
(§4) Working solution (25 μL, 2 μM) was added in duplicate to wells in a 0.5 mL per well, 96 well plate which was preincubated to reach 37°C. Hepatocyte suspension (25 μL) was added to each plate, and the plate incubated (37°C, 95% relative humidity with 5% CO2 supply) under gentle mixing (Thermomixer @300 rpm). After designated time periods, ice-cold MeCN (250 μL) was added with a suitable standard. For T = 0 min, ice-cold MeCN (250 μL) with suitable standard was added to the working solution (2 μM) and hepatocyte suspension (25 μL) added. The plates for each time point were shaken, sonicated for 5 mins and kept at 4°C until the final plate was processed. The plates were centrifuged at 4,000 rpm for 20 min, supernatant (110 μL) was mixed with water (110 μL) and the samples analysed using LC-MS/MS.

The nature of data set [2]: Metabolic stability in human hepatocytes. The data set is classed as in vitro ADME. The settings on record: hepatocytes (suspension), pH 7.4, 90 min incubation, read-out: Human hepatocyte % remaining at 90 min. On the procedure: as §3, §4
For the next data set, the system named is S. japonicum adult. The data set can be described thus: In vitro adult S. japonicum worm assay. Type of data set: cell-based.
Text: as §1, §2

Data set [3] can be described thus: In vivo efficacy, mouse model of juvenile (21-day old) S. mansoni infection. Conditions: female, CD1, plasma; mouse, Juvenile infection, oral 50 mg/kg, formulation corn oil; read-out: Plasma conc @24 h (efficacy experiment). As to the method: (§5) Prior to in vivo efficacy experiments, a single animal was given a dose of drug (using the same formulation) that was twice as large as that planned for use in the efficacy experiments and was observed periodically for adverse clinical signs for 24h by trained veterinarians. Adverse clinical signs checked include postural defect, vocalization, oculo-nasal discharge, hypersalivation, change in activity, abnormal gait, respiration and pulse, piloerection, loss of pupillary reflex, eyelid reflex, chromodacryorrhea, reaction to handling, tremor, convulsions, prostration, diarrhoea, cachexia, emaciation. […] In vivo efficacy was assessed in female CD1 mice using methods based on those previously described. Mice were infected subcutaneously with 150 cercariae. Test compounds were suspended in 7% Tween-80 / 3% Ethanol / double distilled water and drug dispersal was facilitated by vortexing and using a sonicating water bath (Formulation “Aqueous”). Alternatively, drugs were first dissolved in DMSO, then diluted with corn oil to give a 1:19 DMSO:corn oil solution/suspension of test compound (Formulation “Corn oil”). Dosing was by oral gavage. Mice in the negative control groups were given the drug suspension vehicle only. Positive controls for treatment of adult, day 42 old, infections were treated with PZQ and those for juvenile, day 21 old, infections with artemether, which unlike PZQ is effective against the juvenile worm infections in mice. During and following treatment, mice were closely observed for any ill effects by staff experienced in animal handling. This involved individuals who were blinded to the treatment groups. Effects they were trained to look for included hunching, immobility, piloerection, subdued behaviour, diarrhoea and loss of body condition. None were seen. Worms were recovered by portal perfusion with citrate saline 8–14 days post treatment and counted. Differences between groups relative to the non-drug treated controls were assessed for statistical significance by Student’s unpaired t-test using GraphPad Prism Software. P values are presented as follows:- ns–P > 0.05 (not significant), * P ≤ 0.05, ** P ≤ 0.01, *** P ≤ 0.001, **** P ≤ 0.0001.
(§6) For pharmacokinetic analysis during the in vivo efficacy experiments individual animals were only sampled once. Samples were taken from one animal in each experimental group at each of 1, 4, 8 h and samples from two animals in each group were taken at 24 h.

In data set [4] the test system is S. mansoni juvenile worms. The description is as above. The settings on record: mouse, Juvenile infection, oral 50 mg/kg, formulation corn oil. On the procedure: as §5, §6
A further data set in a line: Kinetic solubility. The data set is classed as physicochemical. The text has this: Table 4 in vitro, physicochemical and in vivo properties of compounds pictured in Fig 10. | column: Measured physicochemical properties / Kinetic solubility, pH 7.4 (uM); Measured physicochemical properties / Kinetic solubility, FaSSIF (uM); Measured physicochemical properties / Kinetic solubility, FeSSIF (uM)

A short description of data set [5]: Plasma protein binding in human plasma at 10 uM, equilibrium dialysis. The data set is classed as in vitro ADME. As to the method: (§7) Each experiment was performed in duplicate for the compound being tested. A working solution of compound was prepared from 10 μL of 10 mM solution in DMSO + 190 μL 40:60 MeCN:Water. A Total solution was prepared from 12 μL of working solution + 588 μL plasma (compound conc: 10 μM, DMSO: 0.1%, ACN:0.76%). In an equilibrium dialysis chamber, Total solution (200 μL) was added to the plasma chamber and PBS pH 7.4 (350 μL) was added to the buffer chamber. The chamber was then incubated at 37°C for 6 h with constant shaking at 400 rpm (Thermomixer comfort, Eppendorf). Aliquots were removed from both plasma and buffer chambers and the following test samples prepared: Blank: blank Plasma (20 μL) + blank buffer (60 μL), Buffer: blank plasma (20 μL) + test buffer (60 μL), Plasma: test plasma (20 μL) + blank buffer (60 μL), Total: total sample (20 μL) + blank buffer (60 μL). Ice-cold acetonitrile (160 μL), containing a suitable standard was added to all samples, they were shaken vigorously and centrifuged at 4,000 rpm for 20 min at 15°C. Supernatant (110 μL) from each sample was diluted with water (110 μL) and the sample analysed by LC-MS/MS.
(§8) % Free = 100 × (AREA in buffer × dilution factor)/(AREA in Plasma × dilution factor)
(§9) % Recovery = 100 ×[(Avg AREA in buffer × dilution factor) + (Avg AREA in Plasma × dilution factor)] / (Avg AREA in Total × dilution factor)

The nature of data set [6]: Plasma protein binding in mouse plasma at 10 uM, equilibrium dialysis. The data set is classed as in vitro ADME. As to the method:
as §7, §8, §9

The test system of data set [7] is S. mansoni juvenile worms. The settings on record: cited from earlier work.
The subject of the next data set is S. haematobium. On the set-up: method as in PMID 28126024. The settings on record: 40 mg/kg; cited from earlier work.
A further data set deals with S. mansoni. On the set-up: method as in PMID 28126024. Conditions: 40 mg/kg; cited from earlier work.
For the next data set, the system named is S. japonicum. On the set-up: method as in PMID 28126024. Conditions: 40 mg/kg; cited from earlier work.
The test system of the next data set is S. mansoni infections. On the set-up: method as in PMID 29126136. Conditions: cited from earlier work.
Setting [8] is: Table 2, in vitro, read-out: Adult S. mansoni EC50.

Converted amounts (≈) assume the structure as drawn. Where two headings read alike, the source gives them in different places.

Protocol for Mouse pharmacokinetics: Routine pharmacokinetics was carried out as previously described [24] with the following modifications: Swiss albino male mice of average weight 30 g with three animals per experiment. The final vehicle was 10% DMSO, 90% 50 mM Na2HPO4 with 0.5% Tween-80. Compounds were dosed singly (at a variety of doses as noted in the text) or more commonly in mixtures of 5 at 1 mg/kg per compound iv into the lateral tail vein or 2.5 mg/kg per compound by oral gavage. ~30 μl blood samples were taken by venepuncture, into heparinized capillary tubes and subsequently transferred into 0.5 ml micro-centrifuge tubes. Collection time points were 5 min (iv only), 15 min, 30 min, 1 h, 2 h, 4 h, 8 h & 24 h. All blood samples were processed for plasma by centrifugation at 4,000 rpm for 10 min at 4°C within half an hour of collection. Plasma samples were stored at -20°C until bioanalysis.
Prior to LC-MS analysis, all samples were extracted using protein precipitation using acetonitrile as the extraction solvent. For each batch of samples, a calibration line spanning an appropriate concentration range was created by spiking the compound of interest into blank matrix. The calibration line included 10 evenly spaced points. […] Where necessary, additional dilution QCs were included to validate the dilution process. Within each batch at least 3 study samples were assayed pre and post dilution to assess whether there was any impact from the presence of dosing vehicle in the samples. A linear regression was performed on peak area response ratios (analyte:IS) and the results used to back-calculate analyte concentrations. A batch of samples were considered acceptable if 75% of the calibration samples and 66% of the standard QC samples were within 20% of nominal. The linear range of the assay was defined by the calibration line ±20% i.e. the maximum reportable concentration was 120% of the highest concentration calibration sample that passed acceptance criteria. A metric plot of the IS response was reviewed to ensure the integrity of the study sample data.

For `CC(C)c1nn2cnc(-c3ccc(F)c(C(F)(F)F)c3)cc2c1-c1ccc2[nH]ncc2c1F` [LSHTM-3644], the concentration giving a half-maximal response (EC50) in the data set on Adult S. mansoni (setting [8]) was 40 nM. The compound further displayed a half-maximal effective concentration (EC50) with Juvenile S. mansoni of 60 nM. For the same compound, in “Mouse pharmacokinetics”, the Clobs amounted to 6.33 mL/min/kg, the area under the curve AUC(0-inf) is 1330 ng·h/mL, the Vd stood at 2.4 L/kg and the bioavailability is 76%. The half-life in “Mouse pharmacokinetics” was 6.3 h.

As to `CC(C)c1cc(-c2cn3c(-c4ccc5[nH]ncc5c4F)c(C(F)(F)F)nc3cn2)ccc1F` [LSHTM-3661], the EC50 is 2.3 nM in the data set with Adult S. mansoni (setting [8]); 2.3 nM with Adult S. mansoni (Table 3, S. mansoni, read-out: Sm adult EC50); 2.7 nM with Juvenile S. mansoni; 24.8 nM in the data set with S. japonicum adult (Schistosoma japonicum, S. japonicum, 120 h incubation, read-out: Sj adult EC50). The “Cytotox TC50” value in the data set on HepG2 cells is 17,000 nM. The amount remaining at 1.5 h, 1 µM in [1] was determined as 78%; in [2] it was 45%. Moreover, the “Potency ratio Sj/Sm” value with S. japonicum adult (adult EC50 S. japonicum / S. mansoni) is given as 10.9. For the same compound, the Clobs in the data set “Mouse pharmacokinetics” was found to be 31.3 mL/min/kg. In addition, the AUC(0-inf) in the data set “Mouse pharmacokinetics” amounted to 300 ng·h/mL. Besides, the Vd in “Mouse pharmacokinetics” is 5.6 L/kg. For the same compound, in “Mouse pharmacokinetics”, the bioavailability was 57.1%. Further, the half-life in “Mouse pharmacokinetics” was 4.5 h. In data set [3], the concentration at 24 h stood at 178 ng/mL. In [4], this compound gave a Worms remaining of 0%. For the same compound, the solubility (kinetic) at 24 h in “Kinetic solubility” (pH 7.4, read-out: Kinetic solubility, pH 7.4) is 0.04 µM (≈ 0.0183 µg/mL).

With `CC(C)Oc1cc(-c2cn3c(-c4ccc5[nH]ncc5c4F)c(C(F)(F)F)nc3cn2)ccc1F` [LSHTM-3690], the concentration for a half-maximal effect (EC50) with Adult S. mansoni (setting [8]) is 9 nM; in the data set on Juvenile S. mansoni, 11.1 nM. In the data set with HepG2 cells, the “Cytotox TC50” value is recorded as 9,250 nM. Moreover, the amount remaining at 1.5 h, 1 µM in data set [1] came to 31%; in [2] it was 79%. For the same compound, the Clobs in “Mouse pharmacokinetics” was 24.5 mL/min/kg. In addition, the total exposure AUC(0-inf) in the data set “Mouse pharmacokinetics” came to 300 ng·h/mL. Further, the Vd in “Mouse pharmacokinetics” was found to be 5 L/kg. In “Mouse pharmacokinetics”, the bioavailability was 100%. For the same compound, in the data set “Mouse pharmacokinetics”, the half-life is 4.6 h. The “Human plasma protein %binding” value in data set [5] worked out at 99.925%. Further, the recovery at 6 h, 10 µM in data set [5] (human, human plasma, pH 7.4) was found to be 89%; in [6] (mouse, mouse plasma, pH 7.4) it was 93.9%. The “Mouse plasma protein %binding” value in [6] is given as 99.8775%. Further, the solubility (kinetic) at 24 h in “Kinetic solubility” (FaSSIF, pH 6.5, read-out: Kinetic solubility, FaSSIF) was 188 µM (≈ 89 µg/mL); in the data set “Kinetic solubility” (FeSSIF, pH 5, read-out: Kinetic solubility, FeSSIF), 196 µM (≈ 92.8 µg/mL).

For `O=C(C1CCCCC1)N1CC(=O)N2CCc3ccccc3C2C1` (stereo not drawn) [PZQ, Praziquantel], in data set [7] (both in vivo and in vitro), the “activity against the juvenile stages” value is “relatively ineffective”. Moreover, the “cure rate in children” value with S. haematobium is 73.6%; with S. mansoni, 76.4%; in the data set with S. japonicum, 95.3%.

Consider `CO[C@H]1O[C@@H]2O[C@@]3(C)CC[C@H]4[C@H](C)CC[C@@H]([C@H]1C)[C@@]24OO3` [artemether], for which the “efficacy against the juvenile worm infections in mice” value in data set [7] (mice) was “effective”.

On to `CC(C)NCC1CCc2cc(CO)c([N+](=O)[O-])cc2N1` (stereo not drawn) [oxamniquine], for which, in the data set with S. mansoni infections, the “efficacy against S. mansoni infections” value was “effective”.
